Calls of active or inactive are those of the source. How the calls were made is not given here.
Tested on: CCRIS mutagenicity, Ames/micronucleus/aberration tests
Experiment: CCRIS mutagenicity studies
[1] = Test System: AMES SALMONELLA TYPHIMURIUM, Strain/Indicator: TA98, Metabolic Activation: NONE, Method: PREINCUBATION
[2] = Test System: AMES SALMONELLA TYPHIMURIUM, Strain/Indicator: TA98, Metabolic Activation: RAT, LIVER, S-9, AROCLOR 1254, Method: PREINCUBATION
[3] = Test System: AMES SALMONELLA TYPHIMURIUM, Strain/Indicator: TA100, Metabolic Activation: NONE, Method: PREINCUBATION
[4] = Test System: AMES SALMONELLA TYPHIMURIUM, Strain/Indicator: TA100, Metabolic Activation: RAT, LIVER, S-9, AROCLOR 1254, Method: PREINCUBATION
[5] = Test System: AMES SALMONELLA TYPHIMURIUM, Strain/Indicator: TA98, Metabolic Activation: RAT, LIVER, S-9, AROCLOR 1254, Method: STANDARD PLATE

CC(=O)Nc1ccc(Oc2ccc(N(O)C=O)cc2)cc1
mutagenic call (Test System: AMES SALMONELLA TYPHIMURIUM, Strain/Indicator: TA98(1,8-DNP6), Metabolic Activation: NONE, Method: PREINCUBATION): active; positive
mutagenic call (Test System: AMES SALMONELLA TYPHIMURIUM, Strain/Indicator: TA98(1,8-DNP6), Metabolic Activation: RAT, LIVER, S-9, AROCLOR 1254, Method: PREINCUBATION): active; positive
mutagenic call (Test System: AMES SALMONELLA TYPHIMURIUM, Strain/Indicator: TA98(NR), Metabolic Activation: NONE, Method: PREINCUBATION): active; positive
mutagenic call (Test System: AMES SALMONELLA TYPHIMURIUM, Strain/Indicator: TA98(NR), Metabolic Activation: RAT, LIVER, S-9, AROCLOR 1254, Method: PREINCUBATION): active; positive
mutagenic call [1]: active; positive
mutagenic call [2]: active; positive
mutagenic call (Test System: AMES SALMONELLA TYPHIMURIUM, Strain/Indicator: TA100(NR), Metabolic Activation: NONE, Method: PREINCUBATION): active; positive
mutagenic call (Test System: AMES SALMONELLA TYPHIMURIUM, Strain/Indicator: TA100(NR), Metabolic Activation: RAT, LIVER, S-9, AROCLOR 1254, Method: PREINCUBATION): active; positive
mutagenic call [3]: active; positive
mutagenic call [4]: active; positive

COc1c(C(C)(C)C)cc([N+](=O)[O-])c(C)c1[N+](=O)[O-]
mutagenic call (Test System: AMES SALMONELLA TYPHIMURIUM, Strain/Indicator: TA98, Metabolic Activation: HAMSTER, LIVER, S-9, AROCLOR 1254 (10%), Method: PREINCUBATION): inactive; negative
mutagenic call [1]: inactive; negative
mutagenic call (Test System: AMES SALMONELLA TYPHIMURIUM, Strain/Indicator: TA98, Metabolic Activation: NONE, Method: STANDARD PLATE): inactive; negative
mutagenic call (Test System: AMES SALMONELLA TYPHIMURIUM, Strain/Indicator: TA98, Metabolic Activation: RAT, LIVER, AROCLOR 1254, Method: STANDARD PLATE): inactive; negative
mutagenic call (Test System: AMES SALMONELLA TYPHIMURIUM, Strain/Indicator: TA98, Metabolic Activation: RAT, LIVER, S-9, AROCLOR 1254 (10%), Method: PREINCUBATION): inactive; negative
mutagenic call [2]: inactive; negative
mutagenic call [5]: inactive; negative
mutagenic call (Test System: AMES SALMONELLA TYPHIMURIUM, Strain/Indicator: TA100 (NR), Metabolic Activation: NONE, Method: STANDARD PLATE): inactive; negative
mutagenic call (Test System: AMES SALMONELLA TYPHIMURIUM, Strain/Indicator: TA100(NR), Metabolic Activation: RAT LIVER S-9, AROCLOR 1254, Method: STANDARD PLATE): inactive; negative
mutagenic call (Test System: AMES SALMONELLA TYPHIMURIUM, Strain/Indicator: TA100, Metabolic Activation: HAMSTER, LIVER, S-9, AROCLOR 1254 (10%), Method: PREINCUBATION): inactive; negative
mutagenic call [3]: inactive; negative
mutagenic call (Test System: AMES SALMONELLA TYPHIMURIUM, Strain/Indicator: TA100, Metabolic Activation: NONE, Method: STANDARD PLATE): inactive; negative
mutagenic call (Test System: AMES SALMONELLA TYPHIMURIUM, Strain/Indicator: TA100, Metabolic Activation: RAT LIVER S-9, AROCLOR 1254, Method: STANDARD PLATE): active; positive
mutagenic call (Test System: AMES SALMONELLA TYPHIMURIUM, Strain/Indicator: TA100, Metabolic Activation: RAT, LIVER, S-9, AROCLOR 1254 (10%), Method: PREINCUBATION): inactive; negative
mutagenic call [4]: active; positive
mutagenic call (Test System: AMES SALMONELLA TYPHIMURIUM, Strain/Indicator: TA100, Metabolic Activation: RAT, LIVER, S-9, AROCLOR 1254, Method: STANDARD PLATE): active; positive
mutagenic call (Test System: AMES SALMONELLA TYPHIMURIUM, Strain/Indicator: TA1535, Metabolic Activation: HAMSTER, LIVER, S-9, AROCLOR 1254 (10%), Method: PREINCUBATION): inactive; negative
mutagenic call (Test System: AMES SALMONELLA TYPHIMURIUM, Strain/Indicator: TA1535, Metabolic Activation: NONE, Method: PREINCUBATION): inactive; negative
mutagenic call (Test System: AMES SALMONELLA TYPHIMURIUM, Strain/Indicator: TA1535, Metabolic Activation: RAT, LIVER, S-9, AROCLOR 1254 (10%), Method: PREINCUBATION): inactive; negative
mutagenic call (Test System: AMES SALMONELLA TYPHIMURIUM, Strain/Indicator: TA1537, Metabolic Activation: HAMSTER, LIVER, S-9, AROCLOR 1254 (10%), Method: PREINCUBATION): inactive; negative
mutagenic call (Test System: AMES SALMONELLA TYPHIMURIUM, Strain/Indicator: TA1537, Metabolic Activation: NONE, Method: PREINCUBATION): inactive; negative
mutagenic call (Test System: AMES SALMONELLA TYPHIMURIUM, Strain/Indicator: TA1537, Metabolic Activation: RAT, LIVER, S-9, AROCLOR 1254 (10%), Method: PREINCUBATION): inactive; negative

Cc1c(N)nc([C@H](CC(N)=O)NC[C@H](N)C(N)=O)nc1C(=O)N[C@H](C(=O)N[C@H](C)[C@@H](O)[C@H](C)C(=O)N[C@H](C(=O)NCCc1nc(-c2nc(C(=O)NCCCN(C)CCCN=C(N)CC3CCC(Cl)CC3)cs2)cs1)[C@@H](C)O)[C@@H](O[C@@H]1O[C@@H](CO)[C@@H](O)[C@H](O)[C@@H]1O[C@H]1O[C@H](CO)[C@@H](O)[C@H](OC(N)=O)[C@@H]1O)c1cnc[nH]1 (stereo partly specified)
mutagenic call (Test System: AMES SALMONELLA TYPHIMURIUM, Strain/Indicator: TA94, Metabolic Activation: NONE, Method: PREINCUBATION): active; positive
mutagenic call (Test System: AMES SALMONELLA TYPHIMURIUM, Strain/Indicator: TA102, Metabolic Activation: NONE, Method: PREINCUBATION): active; positive

O/N=C/c1ccncc1
mutagenic call (Test System: AMES SALMONELLA TYPHIMURIUM, Strain/Indicator: TA102, Metabolic Activation: RAT, LIVER, S-9, PHENOBARBITAL AND 5,6-BENZOFLAVONE, Method: STANDARD PLATE): inactive; negative
mutagenic call (Test System: AMES SALMONELLA TYPHIMURIUM, Strain/Indicator: TA2638, Metabolic Activation: RAT, LIVER, S-9, PHENOBARBITAL AND 5,6-BENZOFLAVONE, Method: STANDARD PLATE): inactive; negative
mutagenic call (Test System: E. COLI, Strain/Indicator: WP2 (PKM101), Metabolic Activation: RAT, LIVER, S-9, PHENOBARBITAL AND 5,6-BENZOFLAVONE, Method: STANDARD PLATE): inactive; negative
mutagenic call (Test System: E. COLI, Strain/Indicator: WP2 UVRA (PKM101), Metabolic Activation: RAT, LIVER, S-9, PHENOBARBITAL AND 5,6-BENZOFLAVONE, Method: STANDARD PLATE): active; positive

CC(N)C(=O)O (stereo unspecified)
mutagenic call (Test System: AMES SALMONELLA TYPHIMURIUM, Strain/Indicator: TA98, Metabolic Activation: RAT LIVER, S-9, CHLOROPHENE, Method: STANDARD PLATE (COMPOUND HEATED AT 250 DEGREES CELSIUS FOR 20 MIN)): inactive; negative

CNC(=O)Oc1cc2ccccc2c2ccccc12
mutagenic call [5]: inactive; negative
mutagenic call (Test System: AMES SALMONELLA TYPHIMURIUM, Strain/Indicator: TA1535, Metabolic Activation: RAT, LIVER, S-9, AROCLOR 1254, Method: STANDARD PLATE): active; positive
